# Results: US20050061314A1, “Metered dose inhaler” (Vactura Limited, priority 2001, published 2005)
# Assays:
# effect of THC = conditions: cited from earlier work
# cataleptic effect of THC = conditions: mice; cited from earlier work
# [1] = Andersen Cascade Impactor aerosol characterisation of pMDI solution formulations; type: physicochemical
# Procedure: The FPD, which provides a direct measurement of the aerosol particles considered suitable for deposition and retention in the respiratory tract, is calculated as the mass of the particles deposited from stage 3 to the filter (particles with an aerodynamic diameter less than 4.7 μm) in an Andersen Cascade Impactor.
# The aerodynamic particle size distribution of an aerosol formulation is characterised using a Multistage Cascade Impactor according to the procedure described in European Pharmacopoeia 2nd edition, 1995, part V.5.9.1, pages 15-17. Generally an Andersen Cascade Impactor (ACI) is utilised. Deposition of the drug on each ACI plate is determined by high performance liquid chromatography (HPLC). Mean metered dose is calculated from the cumulative deposition in the actuator and ACI stages; mean delivered dose is calculated from the cumulative deposition in the ACI. Mean respirable dose (fine particle dose, i.e. FPD) which provides a direct measurement of the aerosol particles is considered suitable for deposition and retention in the respiratory tract, is obtained from the deposition on Stage 3 (S3) to filter (AF) corresponding to particles with an aerodynamic diameter ≦4.7 μm. Smaller particles, with an aerodynamic diameter ≦1.1 μm correspond to the fraction obtained from the deposition on Stage 6 to filter.
# The FPD can also be expressed as a percentage of the ex-valve dose or recovered dose (i.e. Fine Particle Fraction: FPF≦4.7 μm or FPF≦1.1 μm). Shot weights are measured by weighing each canister before and after the actuation.
# The experiments of example 2 consisted of discharging Δ^9-THC (THC)/ethanol/glycerol/HFA 134a and Δ^9-THC hemisuccinate (THC-HS)/ethanol/glycerol/HFA 134a formulations through actuator inserts housed in a modified Bespak actuator (630 series) into an Andersen Cascade Impactor operated at 28.3 L min^−1. Two product strengths, 100 μg/dose and 1000 μg/dose, were used in combination with 5% or 10% w/w ethanol, and 0.1% or 0.3% glycerol. Experiments were conducted using 0.14 and 0.16 mm diameter, 0.60 mm long, laser drilled actuator orifices in accordance with the invention in its preferred aspects and a third party supplied actuator with an orifice diameter of 0.22 mm. The quantities of drug deposited on the actuator, the throat and the stages of the impactor were measured. The delivered dose, the mass median aerodynamic diameter (MMAD), the geometric standard deviation (GSD), the fine particle dose ≦4.7 μm (FPD≦4.7) and the fine particle dose ≦1.1 μm (FPD≦1.1) were calculated from the results of these experiments and are set out in tables 3 and 4. The FPDs were also expressed as a % fraction of the ex-valve dose (FPF≦4.7, FPF≦1.1). Shot weight was measured by weighing the pMDI before and after discharge. These latter parameters are also set out in tables 3 and 4 along with other results of these experiments.
# asthmatic patients = conditions: pMDI with CFC propellant and ethanol; cited from earlier work
# mice = conditions: cited from earlier work
# [2] = mouse brain; cited from earlier work
# GABA = conditions: cited from earlier work
# [3] = 100 μg, 5% Ethanol, 0.1% Glycerol, HFA134a, 50 μl, Actuator 0.14 mm
# [4] = 1000 μg, 5% Ethanol, 0.1% Glycerol, HFA134a, 50 μl, Actuator 0.14 mm
# [5] = 100 μg/50 μl/134a, 5% Et, 0.1% Gly, 0.14 mm Aluminium insert (4b)
# [6] = 100 μg/50 μl/134a, 5% Et, 0.1% Gly, 0.16 mm Al insert (11A)
# [7] = 100 μg/50 μl/134a, 5% Et, 0.1% Gly, 0.22 mm Bespak Actuator
# [8] = 100 μg/50 μl/134a, 10% Et, 0.3% Gly, 0.14 mm Aluminium insert (4b)
structure (smiles),measurement,setting,value
"CCCCCc1cc(O)c2c(c1)OC(C)(C)c1ccc(C)cc1-2 [CBN, cannabinol]",effect on the effect of THC in man,effect of THC,potentates the effect of THC
same,effect on cataleptic effect of THC,cataleptic effect of THC,antagonises cataleptic effect of THC
"CCCCCc1cc(O)c2c(c1)OC(C)(C)[C@@H]1CCC(C)=C[C@@H]21 [THC, Δ^9-tetrahydrocannabinol, reference compound]",Delivered,[1]; [3],108.2 µg
same,FPD<1.1 μm,[1]; [3],42.01 µg
same,FPD<3.3 μm,[1]; [3],98.02 µg
same,FPD<4.7 μm,[1]; [3],101.71 µg
same,FPF<1.1 μm,[1]; [3],36.63%
same,FPF<3.3 μm,[1]; [3],85.46%
same,FPF<4.7,[1]; [3],88.67%
same,GSD,[1]; [3],1.8
same,MMAD,[1]; [3],1.3 μm
same,Recovered,[1]; [3],114.7 µg
same,Shot Weight ± SD,[1]; [3],62.4 ± 0.8 mg
same,Delivered,[1]; [4],1044.5 µg
same,FPD<1.1 μm,[1]; [4],129.7 µg
same,FPD<3.3 μm,[1]; [4],735.5 µg
same,FPD<4.7 μm,[1]; [4],907.14 µg
same,FPF<1.1 μm,[1]; [4],11.69%
same,FPF<3.3 μm,[1]; [4],66.32%
same,FPF<4.7,[1]; [4],81.79%
same,GSD,[1]; [4],1.7
same,MMAD,[1]; [4],2.3 μm
same,Recovered,[1]; [4],1109.1 µg
same,Shot Weight ± SD,[1]; [4],63.8 ± 0.4 mg
same,bronchodilatory effect,asthmatic patients,bronchodilatory effect
"CCCCCc1cc(O)c2c(c1)OC(C)(CCC=C(C)C)C=C2 (stereo not drawn) [CBC, cannabichromene]",effect on LD50 of THC,mice,does lower LD50 of THC
"C=C(C)[C@@H]1CCC(C)=C[C@H]1c1c(O)cc(CCCCC)cc1O [CBD, cannabidiol]",effect on THC levels in the brain,[2],increases THC levels
"CCCCCc1cc(O)c(C/C=C(\C)CCC=C(C)C)c(O)c1 [CBG, cannabigerol]",GABA inhibitor potency relative to THC,GABA,more potent GABA inhibitor than THC
"CCCCCc1cc(OC(=O)CCC(=O)O)c2c(c1)OC(C)(C)[C@@H]1CCC(C)=C[C@@H]21 [THC-HS, Δ^9-THC hemisuccinate]",Delivered,[1]; [3],97.30 µg
same,FPD<1.1 μm,[1]; [3],37.56 µg
same,FPD<3.3 μm,[1]; [3],89.66 µg
same,FPD<4.7 μm,[1]; [3],91.94 µg
same,FPF<1.1 μm,[1]; [3],36.86%
same,FPF<3.3 μm,[1]; [3],87.99%
same,FPF<4.7,[1]; [3],90.23%
same,GSD,[1]; [3],1.7
same,MMAD,[1]; [3],1.3 μm
same,Recovered,[1]; [3],101.90 µg
same,Shot Weight ± SD,[1]; [3],64.7 ± 0.5 mg
same,Actuator,[1]; [5],4.57 µg
same,Delivered,[1]; [5],97.30 µg
same,Dose < 1.1 μm,[1]; [5],37.56 µg
same,FPD<3.3 μm,[1]; [5],89.66 µg
same,FPD<4.7 μm,[1]; [5],91.94 µg
same,FPF<1.1 μm,[1]; [5],36.86%
same,FPF<3.3 μm,[1]; [5],87.99%
same,FPF<4.7,[1]; [5],90.23%
same,GSD,[1]; [5],1.7
same,MMAD,[1]; [5],1.3 μm
same,Recovered,[1]; [5],101.90 µg
same,Shot Weight ± SD,[1]; [5],64.7 ± 0.5 mg
same,Throat,[1]; [5],3.51 µg
same,Actuator,[1]; [6],4.88 µg
same,Delivered,[1]; [6],93.40 µg
same,Dose < 1.1 μm,[1]; [6],28.19 µg
same,FPD<3.3 μm,[1]; [6],80.07 µg
same,FPD<4.7 μm,[1]; [6],83.56 µg
same,FPF<1.1 μm,[1]; [6],28.59%
same,FPF<3.3 μm,[1]; [6],81.25%
same,FPF<4.7,[1]; [6],84.79%
same,GSD,[1]; [6],1.8
same,MMAD,[1]; [6],1.4 μm
same,Recovered,[1]; [6],98.55 µg
same,Shot Weight ± SD,[1]; [6],62.0 ± 0.6 mg
same,Throat,[1]; [6],7.52 µg
same,Actuator,[1]; [7],7.71 µg
same,Delivered,[1]; [7],98.00 µg
same,Dose < 1.1 μm,[1]; [7],24.30 µg
same,FPD<3.3 μm,[1]; [7],77.43 µg
same,FPD<4.7 μm,[1]; [7],82.02 µg
same,FPF<1.1 μm,[1]; [7],22.99%
same,FPF<3.3 μm,[1]; [7],73.25%
same,FPF<4.7,[1]; [7],77.60%
same,GSD,[1]; [7],1.7
same,MMAD,[1]; [7],1.5 μm
same,Recovered,[1]; [7],105.70 µg
same,Shot Weight ± SD,[1]; [7],62.6 ± 0.4 mg
same,Throat,[1]; [7],13.82 µg
same,Actuator,[1]; [8],4.35 µg
same,Delivered,[1]; [8],79.50 µg
same,Dose < 1.1 μm,[1]; [8],14.21 µg
same,FPD<3.3 μm,[1]; [8],65.50 µg
same,FPD<4.7 μm,[1]; [8],70.93 µg
same,FPF<1.1 μm,[1]; [8],16.96%
same,FPF<3.3 μm,[1]; [8],78.16%
same,FPF<4.7,[1]; [8],84.64%
same,GSD,[1]; [8],1.7
same,MMAD,[1]; [8],1.7 μm
same,Recovered,[1]; [8],83.80 µg
same,Shot Weight ± SD,[1]; [8],60.7 ± 0.6 mg
same,Throat,[1]; [8],5.93 µg
same,Delivered,[1]; [4],834.3 µg
same,FPD<1.1 μm,[1]; [4],138.04 µg
same,FPD<3.3 μm,[1]; [4],676.16 µg
same,FPD<4.7 μm,[1]; [4],771.92 µg
same,FPF<1.1 μm,[1]; [4],15.83%
same,FPF<3.3 μm,[1]; [4],77.56%
same,FPF<4.7,[1]; [4],88.54%
same,GSD,[1]; [4],1.7
same,MMAD,[1]; [4],1.9 μm
same,Recovered,[1]; [4],871.8 µg
same,Shot Weight ± SD,[1]; [4],64.7 ± 0.6 mg
